Patent publication US8299048B2, “Hexahydrocyclopentyl[f]indazole sulfonamides and derivatives thereof as selective glucocorticoid receptor modulators” (Merck Sharp & Dohme Corp., priority 2008, dated 2012)

target: T1, glucocorticoid receptor (Homo sapiens, UniProt P04150); assay: Ligand binding assay (GR BIND)
T1 construct: endogenous in cells
T1 sequence (P04150 1-777): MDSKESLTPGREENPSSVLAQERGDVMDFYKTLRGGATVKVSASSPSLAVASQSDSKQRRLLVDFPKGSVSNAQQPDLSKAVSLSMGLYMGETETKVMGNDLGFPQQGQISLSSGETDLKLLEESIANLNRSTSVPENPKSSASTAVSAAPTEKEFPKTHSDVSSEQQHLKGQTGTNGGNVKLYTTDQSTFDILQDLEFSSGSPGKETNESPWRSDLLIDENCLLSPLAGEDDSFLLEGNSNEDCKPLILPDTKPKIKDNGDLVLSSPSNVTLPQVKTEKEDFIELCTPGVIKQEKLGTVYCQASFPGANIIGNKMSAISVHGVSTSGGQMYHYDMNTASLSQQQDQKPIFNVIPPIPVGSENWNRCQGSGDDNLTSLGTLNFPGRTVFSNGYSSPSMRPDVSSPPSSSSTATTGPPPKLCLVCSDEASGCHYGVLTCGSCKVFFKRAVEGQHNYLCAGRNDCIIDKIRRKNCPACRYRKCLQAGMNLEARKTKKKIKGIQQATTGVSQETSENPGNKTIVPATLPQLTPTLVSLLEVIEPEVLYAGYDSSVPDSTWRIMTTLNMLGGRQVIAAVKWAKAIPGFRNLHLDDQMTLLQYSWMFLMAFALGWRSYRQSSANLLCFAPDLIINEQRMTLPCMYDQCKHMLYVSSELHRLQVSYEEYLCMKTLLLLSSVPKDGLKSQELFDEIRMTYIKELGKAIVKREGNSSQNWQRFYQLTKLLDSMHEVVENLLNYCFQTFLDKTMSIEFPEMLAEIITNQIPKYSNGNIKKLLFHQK
How it was run: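 Displacement of tritiated dexamethasone (6 nM trace solution) from receptor in cell supernatant was measured after overnight incubation at 4 °C in molybdate-containing TEGM, pH 7.2, 2% ethanol. Hydroxylapatite pulled down the receptor–ligand complex for filter washing and scintillation counting, with dexamethasone as reference.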

**Q.** Which Ki does the source give for C[C@]12Cc3cnn(-c4ccc(F)cc4)c3C=C1CC[C@@H]2CNS(=O)(=O)Cc1cccnc1 [Example 169, N-{[(4αR,5S)-1-(4-fluorophenyl)-4α-methyl-1,4,4α,5,6,7-hexahydrocyclopenta[f]indazol-5-yl]methyl}-1-pyridin-3-ylmethanesulfonamide] here?
**A.** The Ki was 20.9 nM.

**Q.** With Cc1noc(C)c1S(=O)(=O)N(CC1CCCO1)C[C@H]1CCC2=Cc3c(cnn3-c3ccc(F)cc3)C[C@@]21C (stereo partly drawn) [Example 170, N-{[(4αR,5S)-1-(4-fluorophenyl)-4α-methyl-1,4,4α,5,6,7-hexahydrocyclopenta[f]indazol-5-yl]methyl}-3,5-dimethyl-N-(tetrahydrofuran-2-ylmethyl)isoxazole-4-sulfonamide] as the compound, how does the Ki read?
**A.** The Ki was 2.6 nM.

**Q.** How did the Ki turn out when CCS(=O)(=O)N(CCOC)C[C@H]1CCC2=Cc3c(cnn3-c3ccc(F)cc3)C[C@@]21C [Example 171, N-{[(4αR,5S)-1-(4-fluorophenyl)-4α-methyl-1,4,4α,5,6,7-hexahydrocyclopenta[f]indazol-5-yl]methyl}-N-(2-methoxyethyl)ethanesulfonamide] was run?
**A.** Its Ki is 7 nM.

**Q.** COCCN(C[C@H]1CCC2=Cc3c(cnn3-c3ccc(F)cc3)C[C@@]21C)S(=O)(=O)c1cn(C)nc1C(F)(F)F [Example 172, N-{[(4αR,5S)-1-(4-fluorophenyl)-4α-methyl-1,4,4α,5,6,7-hexahydrocyclopenta[f]indazol-5-yl]methyl}-N-(2-methoxyethyl)-1-methyl-3-(trifluoromethyl)-1H-pyrazole-4-sulfonamide] was tested. Which Ki did it give?
**A.** Its Ki is 0.6 nM.

**Q.** For COCCN(C[C@H]1CCC2=Cc3c(cnn3-c3ccc(F)cc3)C[C@@]21C)S(=O)(=O)c1c(C)noc1C [Example 173, N-{[(4αR,5S)-1-(4-fluorophenyl)-4α-methyl-1,4,4α,5,6,7-hexahydrocyclopenta[f]indazol-5-yl]methyl}-N-(2-methoxyethyl)-3,5-dimethylisoxazole-4-sulfonamide], which Ki is on record?
**A.** Its Ki is 1.3 nM.

**Q.** With CCS(=O)(=O)N(CC1CCCO1)C[C@H]1CCC2=Cc3c(cnn3-c3ccc(F)cc3)C[C@@]21C (stereo partly drawn) [Example 174, N-{[(4αR,5S)-1-(4-fluorophenyl)-4α-methyl-1,4,4α,5,6,7-hexahydrocyclopenta[f]indazol-5-yl]methyl}-N-(tetrahydrofuran-2-ylmethyl)ethanesulfonamide] as the compound, how does the Ki read?
**A.** The Ki was 3.4 nM.

**Q.** Which Ki does the source give for Cn1cc(S(=O)(=O)N(CC2CCCO2)C[C@H]2CCC3=Cc4c(cnn4-c4ccc(F)cc4)C[C@@]32C)c(C(F)(F)F)n1 (stereo partly drawn) [Example 175, N-{[(4αR,5S)-1-(4-fluorophenyl)-4α-methyl-1,4,4α,5,6,7-hexahydrocyclopenta[f]indazol-5-yl]methyl}-1-methyl-N-(tetrahydrofuran-2-ylmethyl)-3-(trifluoromethyl)-1H-pyrazole-4-sulfonamide] here?
**A.** Its Ki is 1 nM.

**Q.** With Cc1noc(C)c1S(=O)(=O)N(C)C[C@H]1CCC2=Cc3c(cnn3-c3ccc(F)cc3)C[C@@]21C [Example 176, N-{[(4αR,5S)-1-(4-fluorophenyl)-4α-methyl-1,4,4α,5,6,7-hexahydrocyclopenta[f]indazol-5-yl]methyl}-N,3,5-trimethylisoxazole-4-sulfonamide] as the compound, how does the Ki read?
**A.** The Ki was 1.3 nM.

**Q.** CN(C[C@H]1CCC2=Cc3c(cnn3-c3ccc(F)cc3)C[C@@]21C)S(=O)(=O)CC(F)(F)F [Example 177, 2,2,2-trifluoro-N-{[(4αR,5S)-1-(4-fluorophenyl)-4α-methyl-1,4,4α,5,6,7-hexahydrocyclopenta[f]indazol-5-yl]methyl}-N-methylethanesulfonamide] was tested. Which Ki did it give?
**A.** Its Ki is 1.6 nM.

**Q.** CCN(C[C@H]1CCC2=Cc3c(cnn3-c3ccc(F)cc3)C[C@@]21C)S(=O)(=O)c1c(C)noc1C [Example 178, N-ethyl-N-{[(4αR,5S)-1-(4-fluorophenyl)-4α-methyl-1,4,4α,5,6,7-hexahydrocyclopenta[f]indazol-5-yl]methyl}-3,5-dimethylisoxazole-4-sulfonamide] was tested. Which Ki did it give?
**A.** Its Ki is 1.2 nM.

**Q.** How did the Ki turn out when CCN(C[C@H]1CCC2=Cc3c(cnn3-c3ccc(F)cc3)C[C@@]21C)S(=O)(=O)CC(F)(F)F [Example 179, N-ethyl-2,2,2-trifluoro-N-{[(4αR,5S)-1-(4-fluorophenyl)-4α-methyl-1,4,4α,5,6,7-hexahydrocyclopenta[f]indazol-5-yl]methyl}ethanesulfonamide] was run?
**A.** Its Ki is 1.2 nM.

**Q.** COC(=O)c1ccccc1CS(=O)(=O)N(C[C@H]1CCC2=Cc3c(cnn3-c3ccc(F)cc3)C[C@@]21C)C[C@@H](C)O [Example 180, methyl 2-[({{[(4αR,5S)-1-(4-fluorophenyl)-4α-methyl-1,4,4α,5,6,7-hexahydrocyclopenta[f]indazol-5-yl]methyl}[(2R)-2-hydroxypropyl]amino}sulfonyl)methyl]benzoatee] was tested. Which Ki did it give?
**A.** The Ki was 1.8 nM.

**Q.** With COC(=O)c1ccccc1CS(=O)(=O)N(C[C@H]1CCC2=Cc3c(cnn3-c3ccc(F)cc3)C[C@@]21C)C[C@H](C)O [Example 181, methyl 2-[({{[(4αR,5S)-1-(4-fluorophenyl)-4α-methyl-1,4,4α,5,6,7-hexahydrocyclopenta[f]indazol-5-yl]methyl}[(2S)-2-hydroxypropyl]amino}sulfonyl)methyl]benzoate] as the compound, how does the Ki read?
**A.** The Ki was 2.8 nM.

**Q.** C[C@@H](O)CN(C[C@H]1CCC2=Cc3c(cnn3-c3ccc(F)cc3)C[C@@]21C)S(=O)(=O)Cc1ccccc1C(=O)O [Example 182, 2-[({{[(4αR,5S)-1-(4-fluorophenyl)-4α-methyl-1,4,4α,5,6,7-hexahydrocyclopenta[f]indazol-5-yl]methyl}[(2R)-2-hydroxypropyl]amino}sulfonyl)methyl]benzoic acid] was tested. Which Ki did it give?
**A.** The Ki was 93.9 nM.

**Q.** C[C@H](O)CN(C[C@H]1CCC2=Cc3c(cnn3-c3ccc(F)cc3)C[C@@]21C)S(=O)(=O)Cc1ccccc1C(=O)O [Example 183, 2-[({{[(4αR,5S)-1-(4-fluorophenyl)-4α-methyl-1,4,4α,5,6,7-hexahydrocyclopenta[f]indazol-5-yl]methyl}[(2S)-2-hydroxypropyl]amino}sulfonyl)methyl]benzoic acid] was tested. Which Ki did it give?
**A.** Its Ki is 64 nM.

**Q.** How did the Ki turn out when C[C@@H](O)CN(C[C@H]1CCC2=Cc3c(cnn3-c3ccc(F)cc3)C[C@@]21C)S(=O)(=O)Cc1ccccc1C(N)=O [Example 184, 2-[({{[(4αR,5S)-1-(4-fluorophenyl)-4α-methyl-1,4,4α,5,6,7-hexahydrocyclopenta[f]indazol-5-yl]methyl}[(2R)-2-hydroxypropyl]amino}sulfonyl)methyl]benzamide] was run?
**A.** The Ki was 9.6 nM.

**Q.** For C[C@H](O)CN(C[C@H]1CCC2=Cc3c(cnn3-c3ccc(F)cc3)C[C@@]21C)S(=O)(=O)Cc1ccccc1C(N)=O [Example 185, 2-[({{[(4αR,5S)-1-(4-fluorophenyl)-4α-methyl-1,4,4α,5,6,7-hexahydrocyclopenta[f]indazol-5-yl]methyl}[(2S)-2-hydroxypropyl]amino}sulfonyl)methyl]benzamide], which Ki is on record?
**A.** Its Ki is 13.1 nM.

**Q.** For COC(=O)c1ccccc1S(=O)(=O)N(C[C@H]1CCC2=Cc3c(cnn3-c3ccc(F)cc3)C[C@@]21C)C[C@@H](C)O [Example 186, methyl 2-({{[(4αR,5S)-1-(4-fluorophenyl)-4α-methyl-1,4,4α,5,6,7-hexahydrocyclopenta[f]indazol-5-yl]methyl}[(2R)-2-hydroxypropyl]amino}sulfonyl)benzoate], which Ki is on record?
**A.** Its Ki is 1.9 nM.

**Q.** Which Ki does the source give for COC(=O)c1ccccc1S(=O)(=O)N(C[C@H]1CCC2=Cc3c(cnn3-c3ccc(F)cc3)C[C@@]21C)C[C@H](C)O [Example 187, methyl 2-({{[(4αR,5S)-1-(4-fluorophenyl)-4α-methyl-1,4,4α,5,6,7-hexahydrocyclopenta[f]indazol-5-yl]methyl}[(2S)-2-hydroxypropyl]amino}sulfonyl)benzoate] here?
**A.** The Ki was 2.5 nM.

**Q.** How did the Ki turn out when COC(=O)c1ccccc1CS(=O)(=O)N(CCc1ccccc1F)C[C@H]1CCC2=Cc3c(cnn3-c3ccc(F)cc3)C[C@@]21C [Example 188, methyl 2-{[([2-(2-fluorophenyl)ethyl]{[(4αR,5S)-1-(4-fluorophenyl)-4α-methyl-1,4,4α,5,6,7-hexahydrocyclopenta[f]indazol-5-yl]methyl}amino)sulfonyl]methyl}benzoate] was run?
**A.** The Ki was 1.2 nM.

**Q.** For COC(=O)c1ccccc1S(=O)(=O)N(CCc1ccccc1F)C[C@H]1CCC2=Cc3c(cnn3-c3ccc(F)cc3)C[C@@]21C [Example 189, methyl 2-[([2-(2-fluorophenyl)ethyl]{[(4αR,5S)-1-(4-fluorophenyl)-4α-methyl-1,4,4α,5,6,7-hexahydrocyclopenta[f]indazol-5-yl]methyl}amino)sulfonyl]benzoate], which Ki is on record?
**A.** Its Ki is 1.1 nM.

**Q.** For C[C@]12Cc3cnn(-c4ccc(F)cc4)c3C=C1CC[C@@H]2CN(CCc1ccccc1F)S(=O)(=O)Cc1ccccc1C(N)=O [Example 190, 2-{[([2-(2-fluorophenyl)ethyl]{[(4αR,5S)-1-(4-fluorophenyl)-4α-methyl-1,4,4α,5,6,7-hexahydrocyclopenta[f]indazol-5-yl]methyl}amino)sulfonyl]methyl}benzamide], which Ki is on record?
**A.** Its Ki is 1.5 nM.
